Four molecules from patent US4665022A (priority 1984, dated 1987) can be followed below.

The target of experiment [1] is nACh receptors in the cerebral cortex (Rattus norvegicus, UniProt Q05941). Briefly: biochemical. It counts as binding.
Another experiment addresses nicotinic binding sites. More on the design: species or system rat.

Where two headings read alike, the source gives them in different places. Where only a bound is given, the exact number is not on record here.

Sequence of nACh receptors in the cerebral cortex (Q05941 23-502): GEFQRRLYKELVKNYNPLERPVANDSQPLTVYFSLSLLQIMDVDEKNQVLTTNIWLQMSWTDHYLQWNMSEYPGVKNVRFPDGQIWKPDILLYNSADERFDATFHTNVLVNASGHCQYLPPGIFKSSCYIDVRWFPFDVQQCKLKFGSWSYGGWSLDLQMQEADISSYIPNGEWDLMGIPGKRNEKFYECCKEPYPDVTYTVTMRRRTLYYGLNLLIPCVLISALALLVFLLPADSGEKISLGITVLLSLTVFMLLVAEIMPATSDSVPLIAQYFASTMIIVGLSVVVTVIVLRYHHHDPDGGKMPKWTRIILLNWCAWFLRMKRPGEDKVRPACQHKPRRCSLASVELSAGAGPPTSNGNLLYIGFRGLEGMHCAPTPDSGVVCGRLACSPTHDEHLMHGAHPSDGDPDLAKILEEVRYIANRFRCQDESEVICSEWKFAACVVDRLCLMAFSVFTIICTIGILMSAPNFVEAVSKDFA

Turning to `COc1cc2c3cc1Oc1cc(ccc1O)C[C@@H]1c4c(cc(OC)c(O)c4Oc4ccc(cc4)C[C@@H]3N(C)CC2)CC[N+]1(C)C` [d-tubocurarine], the Ki (commonly the equilibrium dissociation constant of an inhibitor or competing ligand from its target) in experiment [1] (read-out: KI) was determined as 0.06 µM.

On to `C[N+](C)(C)CCOC(N)=O` [carbamyl choline], for which the Ki in experiment [1] (read-out: KI) was 0.2 µM.

Consider `CN1[C@@H]2C[C@@H](OC(=O)[C@H](CO)c3ccccc3)C[C@H]1[C@@H]1O[C@@H]12` [scopolamine], for which, in experiment [1], the Ki is above 10000 µM.

With alpha-bungarotoxin, the Ki in experiment [1] (read-out: KI) was determined as 0.00012 µM; at nicotinic binding sites it was 0.13 nM.
